{"source": "paper PMC3115046", "about": "“Analyzing Airway Inflammation with Chemical Biology: Dissection of Acidic Mammalian Chitinase Function with a Selective Drug-like Inhibitor” (Chemistry & Biology, 2011)", "key": {"[1]": {"biological_target": "T1, human AMCase (hAMCase) (Homo sapiens, UniProt Q9BZP6)", "T1 construct": "A fragment corresponding to hAMCase 22-398 (bp 64–1194) was ligated into the pPIC9 vector; made in house; host or cells: Pichia pastoris GS115", "T1 sequence (Q9BZP6 22-398)": "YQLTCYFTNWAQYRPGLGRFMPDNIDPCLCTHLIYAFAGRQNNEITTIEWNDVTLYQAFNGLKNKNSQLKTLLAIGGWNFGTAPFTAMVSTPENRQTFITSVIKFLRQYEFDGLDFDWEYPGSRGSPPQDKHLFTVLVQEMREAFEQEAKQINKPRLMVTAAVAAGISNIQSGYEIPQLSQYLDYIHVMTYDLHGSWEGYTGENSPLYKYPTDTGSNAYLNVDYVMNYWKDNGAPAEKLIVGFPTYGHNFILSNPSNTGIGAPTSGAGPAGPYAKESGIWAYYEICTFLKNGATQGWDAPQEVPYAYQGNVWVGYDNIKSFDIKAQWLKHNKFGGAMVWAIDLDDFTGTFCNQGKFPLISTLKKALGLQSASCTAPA", "test": "Chitinase activity assay with fluorescent 4-MU substrate, hAMCase", "assay_type": "biochemical", "description": "A fragment corresponding to hAMCase 22-398 (bp 64–1194) was ligated into the pPIC9 vector (Invitrogen) using the Xho I and Not I restriction sites. The enzyme was subsequently overexpressed as a secreted protein from the Pichia pastoris GS115 strain and purified using a combination of affinity chromatography and size-exclusion chromatography. Pure hAMCase was spin concentrated to 37 mg/ml in 25 mM HEPES (pH 6.8), 250 mM NaCl. The protein was crystallized at 30°C from 75% saturated NaCl, 0.1 M HEPES (pH 7.4) using the hanging drop method. Crystals grew to an approximate size of 200 × 100 × 50 μm. Crystals were cryoprotected in 50% saturated NaCl, 20% glycerol in 0.1 M HEPES (pH 7.4) and subsequently flash frozen in liquid nitrogen. […] Data for hAMCase were collected at ID14-EH1 at the European Synchrotron Radiation Facilities (ESRF) using a cryostream of cold nitrogen (110 K). […]\nChitinase activity of hAMCase, lung homogenates, or AMCase COS-7 cell supernatants (serum-free) were determined using 4-methylumbelliferyl-β-D-N,N′,N″-triacetylchitotrioside and 4-methylumbelliferyl-β-D-N,N′,N″-triacetylchitobioside, as described. […] Liberated 4-methlyumberlliferone was quantified using a microplate fluorometer (excitation 360 nm/emission 440 nm). Ki and IC50 values were determined in the presence of different concentrations of inhibitor. […]"}, "[2]": {"tested_on": "inflammatory cell recruitment in bronchoalveolar lavage", "test": "Bronchoalveolar lavage cell counts, OVA allergic inflammation model", "assay_type": "in vivo, BALB/c mice", "description": "All experiments used female BALB/c mice, 6- to 8-weeks-old. Mice were kept in individually ventilated cages and all experiments were conducted under UK Home Office guidelines. Mice were sensitized (day 0) and boosted (day 14) i.p. with 20 μg OVA (Grade V, Sigma) adsorbed to 9% potassium alum. Mice were either challenged on day 28 and 30 with 50 μg OVA or PBS by the intratracheal route or were challenged with 1% OVA or PBS by aerosol for 30 min on day 28 to day 30. […] Necropsies were performed 24 hr after the final airway challenge. […] Total cell numbers were counted and cytospins prepared for differential cell counts, which were assessed by morphology following Diff Quick staining ([…]). BALF was centrifuged at 1200 × g and supernatant stored at -20°C for further analysis."}, "[3]": {"settings": "5 mg/kg i.p., OVA-challenged mice"}}}
{"smiles": "Cn1cnc2c1c(=O)n(CCCn1c(=O)c3[nH]cnc3n(C)c1=O)c(=O)n2C", "note": "[bisdionin F]", "values": [{"measurement": "IC50", "setting": "[1]; 4-MU substrate, pH 5.2, 10 min 37°C, read-out: IC50 against hAMCase", "value": "920 ± 40", "unit": "nM"}, {"measurement": "selectivity for AMCase over CHIT1", "setting": "[1]; hAMCase vs hCHIT1", "value": 20, "unit": "fold"}, {"measurement": "increase in neutrophil cell number in BALF vs vehicle-treated OVA-challenged mice", "setting": "[2]; 5 mg/kg i.p.", "value": 4, "unit": "fold"}, {"measurement": "number of eosinophils in BALF", "setting": "[2]; [3]", "value": "reduction"}, {"measurement": "number of lymphocytes in BALF", "setting": "[2]; [3]", "value": "reduction"}, {"measurement": "total cell airway infiltrates (BALF)", "setting": "[2]; 5 mg/kg i.p., OVA-challenged mice, vs vehicle, p < 0.01", "value": "significantly reduced"}, {"measurement": "total cell numbers (BALF) in PBS-challenged animals", "setting": "[2]; 5 mg/kg i.p., PBS-challenged mice", "value": "not altered"}, {"measurement": "eosinophilia of OVA-challenged mice", "setting": "[2]; 1 and 5 mg/kg i.p.", "value": "reduced"}, {"measurement": "increase in neutrophil cell number in BALF", "setting": "[2]; 1 and 5 mg/kg i.p., OVA-challenged mice", "value": "2- to 4 fold"}, {"measurement": "reduction of eosinophil recruitment", "setting": "[2]; doses that decreased penH in allergic animals", "value": "approximately 50%"}]}
